Literature values in patent US9167842B2, “Functional food preparation and use thereof” (priority 2010, dated 2015).
Read-outs that look alike come from different tables or passages of the source.

Experiments:
[1] = oral, 32 hypercholesterolemic patients, three months
[2] = daily folic acid supplement

Structure (SMILES): COc1ccc2cc3[n+](cc2c1OC)CCc1cc2c(cc1-3)OCO2 [berberine]
- reduction of LDL cholesterol [1]: 25%
- reduction of plasma cholesterol [1]: 29%
- reduction of triglycerides [1]: 35%

Structure (SMILES): Nc1nc2ncc(CNc3ccc(C(=O)N[C@@H](CCC(=O)O)C(=O)O)cc3)nc2c(=O)[nH]1 [folic acid]
- reduction of homocysteine [2]: about 60%
- reduction of homocysteine ([2]; dose doubled): about 90%
